Measurements from patent US6605611B2, “Base analogues” (Nycomed Amersham PLC, priority 1997, dated 2003).

Columns and labels:
Type in all cases: biochemical
[1] = tested on: exonuclease free Klenow fragment of DNA polymerase I (EFK); assay: primer extension assay, EFK, Templates 1 and 2, Example 13; details: for substrate for the polymerase (EFK), incorporation: 20 μM total nucleotide, 37° C. for 3 minutes, Template 1 or Template 2; for substrate quality compared with the analogue with the shorter linker arm: EFK primer extension, 20 μM
Method: A primer extension assay was used to evaluate compounds (3.3a), (3.3b), (4.3a),(4.3b) and (8.1) as substrates for exonuclease free Klenow fragment of DNA polymerase I (EFK). The assay used a ^33P 5′ end labelled 15 mer primer hybridised to one of two 24 mer templates. The sequences of the primer and templates are:
(§1) One picomole ^33P labelled primer was hybridised to 2 picomoles of template in ×2 Klenow buffer. To this was added either 20 μM dCTP or 20 μM (3.3a) or 20 μM (3.3b) or 20 μM (4.3a) or 20 μM (4.3b) or 20 μM (8.1) or mixtures of dCTP and compound (3.3a) or (3.3b) or (4.3a) or (4.3b) or (8.1) keeping the total nucleotide concentration fixed at 20 μM. One unit EFK and 2 mU inorganic pyrophosphatase were used per reaction. Primer alone, primer plus template plus enzyme controls were also carried out. The reactions were incubated at 37° C. for 3 minutes. Reactions were then stopped by the addition of formamide/EDTA stop solution. Reaction products were separated on a 19% polyacrylamide 7M urea gel and the product fragments sized by comparison with a ^33P labelled 8 to 32 base oligonucleotide ladder after exposure to Kodak Biomax autoradiography film.

[2] = tested on: exonuclease free Klenow fragment of DNA polymerase I (EFK); assay: primer extension assay, EFK, Example 14; details: 80 μM (1.6), with or without 4 μM dNTPαS, 37° C. for 3 minutes
Method: A primer extension assay was used to evaluate compound (1.6) as a substrate for exonuclease free Klenow fragment of DNA polymerase I (EFK). The assay used a ^33P 5′ end labelled 15 mer primer hybridised to a 24 mer template. The sequences of the primer and template are:
One picomole ^33P labelled primer was hybridised to 2 picomoles of template in ×2 Klenow buffer. To this was added either 4 μM dNTPαS or 80 μM (1.6) or a mixture of 4 μM dNTPαS 80 μM (1.6). One unit EFK and 2 mU inorganic pyrophosphatase were used per reaction. Primer alone, primer plus template plus enzyme controls were also carried out. The reactions were incubated at 37° C. for 3 minutes. Reactions were then stopped by the addition of formamide I EDTA stop solution. Reaction products were separated on a 19% polyacrylamide 7M urea gel and the product fragments sized by comparison with a ^33P labelled 8 to 32 base oligonucleotide ladder after exposure to Kodak Biomax autoradiography film.

[3] = biological target: terminal deoxynucleotidyl transferase (Bos taurus, UniProt P06526); assay: oligonucleotide tailing reaction with terminal deoxynucleotidyl transferase; details: 32 μM nucleotide, 25 U terminal deoxynucleotidyl transferase, 15 mer primer, 90 minutes at 37° C.
Source text: 1-(2′-deoxy-5′-triphospho-β-D-ribofuranosyl)piperidino[2,3-d]pyrimidine-2(1H)-one (1.6), 6-methylamine-3-(5-triphospho-2-deoxy-β-D-erythro-pentofuranosyl)furano[2,3-d]pyrimidin-2-one) (3.3a) and 5-FAM-(6-methylamine-3-(5-triphospho-2-deoxy-β-D-erythro-pentofuranosyl)furano[2,3-d]pyrimidin-2-one) (3.3b), 6-methyl-N-(6-amino)-caproamide-3-(5-triphospho-2-deoxy-β-D-erythro-pentofuranosyl)furano[2,3-d]pyrimidin-2-one (4.3a) and 5-FAM-(6-methyl-N-(6-amino)-caproamide-3-(5-triphospho-2-deoxy-β-D-erythro-pentofuranosyl)furano[2,3-d]pyrimidin-2-one) (4.3b), 6-methylamine-3-(5-triphospho-2-deoxy-β-D-erythro-pentofuranosyl)pyrrolo[2,3-d]pyrimidin-2-one) (8.1), 6-methyl-N-(6-amino)-caproamide-3-(5-triphospho-2-deoxy-β-D-erythro-pentofuranosyl)pyrrolo[2,3-d]pyrimidin-2-one (10.1a), and the FAM and Cy5 of (10.1a, e.g. 10.1b and 10.1c) as substrates for terminal deoxynucleotidyl transferase. In order to test the ability of compounds (1.6), (3.3a), (3.3b), (4.3a), (4.3b), (8.1), (10.1a), (10.1b) and (10.1c) to be accepted by terminal deoxynucleotidyl transferase as a substrate, an oligonucleotide tailing reaction was performed.
A 15 mer primer (sequence: 5′ TGC ATG TGC TGG AGA 3′) and 8 to 32 base oligonucleotide markers were 5′ end labelled with [γ^33P] ATP and T4 polynucleotide kinase. Reactions were boiled for 5 minutes after labelling to remove any PNK activity. Four picomoles of the labelled primer, 25 U terminal deoxynucleotidyl transferase and 32 μM dATP, dCTP, dGTP, dTTP or compounds (1.6), (3.3a), (3.3b), (4.3a), (4.3b), (8.1), (10.1a), (10.1b) and (10.1c) were incubated in 25 μl 100 mM cacodylate buffer pH7.2, 2 mM CoCl2 and 0.2 mM 2-mercaptoethanol for 90 minutes at 37° C. The reactions were stopped by the addition of formamide stop solution and the reaction products run on a 19% polyacrylamide 7M urea gel with the labelled markers. Autoradiography using Biomax film was carried out on the dry gel.

[4] = tested on: exonuclease free Klenow fragment of DNA polymerase I (EFK); assay: primer extension assay, EFK, Example 12; details: 20 μM total nucleotide, 37° C. for 3 minutes, 24 mer template
Method: A primer extension assay was used to evaluate compounds (10.1a), (10.1b) and (10.1c) as substrates for exonuclease free Klenow fragment of DNA polymerase I (EFK). The assay used a ^33P 5′ end labelled 15 mer primer hybridised to a 24 mer template. The sequences of the primer and template are:
as §1, with “μM (10.1a)” for “μM (3.3a)”, “μM (10.1b)” for “μM (3.3b)”, “μM (10.1c)” for “μM (4.3a) or 20 μM (4.3b) or 20 μM (8.1)”, “compound (10.1a)” for “compound (3.3a)”, “or compound (10.1b)” for “or (3.3b)”, “or compound (10.1c)” for “or (4.3a) or (4.3b) or (8.1)”

[5] = tested on: AMV reverse transcriptase; assay: 1st strand cDNA synthesis, incorporation monitored by 33P-dATP spike, TLC and gel
Method: Incorporation of compound (10.1a) into 1st strand cDNA was carried out using a balance of dCTP such that the total concentration of (10.1a) and dCTP was equivalent to each of the other three dNTP concentrations.
(10.1a) was used at three different percentages
These reactions were compared with reactions including Cy5 labelled dCTP. All reactions were monitored by carrying out the reaction in duplicate and monitoring one of the duplicates with a spike of ^33P-dATP.
1 μl ^33P-dATP-active samples only
1 μl AMV reverse transcriptase 20 U/μl
Incubate at 42° C. for 2½ hours
The cDNA reactions were monitored by TLC as follows
1 μl of sample was spotted onto PEI cellulose TLC plates and run in 1.25M Potassium phosphate buffer
Samples were then purified by Qiagen column and eluted in 50 μl of water. The active cDNA products were analysed on a 6% polyacrylamide gel
The gel was then covered in Saran wrap and exposed to phosphorscreen for 1 hour. Phosphorscreen analysis was carried out on the Molecular Dynamics Storm 860 instrument.

[6] = biological target: Thermus aquaticus DNA polymerase (Thermus aquaticus, UniProt P19821); assay: incorporation into arabidopsis DNA by PCR; details: 5% to 50% (10.1a), balance dCTP, 35 cycles
Method: Incorporation of (10.1a) into arabidopsis DNA by PCR was carried out as follows:
The (10.1a) was used in the PCR at various percentages with a balance of dCTP such that the total concentration of (10.1a) and dCTP was equivalent to each of the other three base dNTP's. The percentages of (10.1a) used were:
After PCR, the samples were purified by Qiagen column and analysed by 1% agarose gel.

Sequence of terminal deoxynucleotidyl transferase (P06526 whole entry): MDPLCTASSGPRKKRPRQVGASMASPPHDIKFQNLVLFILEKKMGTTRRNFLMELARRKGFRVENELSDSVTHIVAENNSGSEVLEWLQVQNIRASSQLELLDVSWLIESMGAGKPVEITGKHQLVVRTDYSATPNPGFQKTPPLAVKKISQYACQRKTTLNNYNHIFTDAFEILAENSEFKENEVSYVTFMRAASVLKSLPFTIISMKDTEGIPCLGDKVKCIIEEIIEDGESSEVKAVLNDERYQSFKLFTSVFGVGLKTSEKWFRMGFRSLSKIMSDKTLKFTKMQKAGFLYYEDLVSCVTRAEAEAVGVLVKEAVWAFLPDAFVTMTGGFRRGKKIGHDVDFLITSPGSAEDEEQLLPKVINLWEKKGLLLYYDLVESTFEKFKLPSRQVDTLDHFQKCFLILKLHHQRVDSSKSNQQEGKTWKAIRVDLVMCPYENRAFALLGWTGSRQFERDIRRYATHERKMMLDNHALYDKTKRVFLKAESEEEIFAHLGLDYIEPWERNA
Sequence of Thermus aquaticus DNA polymerase (P19821 whole entry): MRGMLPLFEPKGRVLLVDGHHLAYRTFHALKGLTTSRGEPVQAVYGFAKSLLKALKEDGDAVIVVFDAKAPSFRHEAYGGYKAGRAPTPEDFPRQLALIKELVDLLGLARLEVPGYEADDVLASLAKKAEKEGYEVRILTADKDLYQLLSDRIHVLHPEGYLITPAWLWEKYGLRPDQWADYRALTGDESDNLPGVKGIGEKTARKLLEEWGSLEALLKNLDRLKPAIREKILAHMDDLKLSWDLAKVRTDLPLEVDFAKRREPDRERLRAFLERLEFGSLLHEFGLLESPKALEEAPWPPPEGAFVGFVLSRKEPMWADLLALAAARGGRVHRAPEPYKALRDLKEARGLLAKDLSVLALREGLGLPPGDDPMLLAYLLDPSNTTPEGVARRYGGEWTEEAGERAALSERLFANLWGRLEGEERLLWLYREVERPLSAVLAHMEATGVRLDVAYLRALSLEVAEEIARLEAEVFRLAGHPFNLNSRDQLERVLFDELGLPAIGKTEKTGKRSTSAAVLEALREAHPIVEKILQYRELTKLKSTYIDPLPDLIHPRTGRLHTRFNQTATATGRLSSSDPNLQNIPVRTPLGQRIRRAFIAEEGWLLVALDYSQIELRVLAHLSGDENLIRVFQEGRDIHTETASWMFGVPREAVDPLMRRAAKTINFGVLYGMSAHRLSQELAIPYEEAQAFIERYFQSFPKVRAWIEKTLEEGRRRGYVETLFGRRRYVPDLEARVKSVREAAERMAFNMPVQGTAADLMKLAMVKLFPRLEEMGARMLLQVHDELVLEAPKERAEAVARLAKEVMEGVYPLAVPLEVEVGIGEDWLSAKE

| Compound | 3′ tail length [3] | substrate for the polymerase (EFK), incorporation [1] | also measured |
| --- | --- | --- | --- |
| NCCCCCC(=O)NCC=Cc1cn([C@H]2C[C@H](O)[C@@H](COP(=O)(O)OP(=O)(O)OP(=O)(O)O)O2)c(=O)nc1N [5-allylaminocaproamide dCTP, reference compound] |  |  | incorporation by the polymerase ([1]; under similar assay conditions): did not show any incorporation |
| O=c1nc2c(cn1C1CC(O)C(COP(=O)(O)OP(=O)(O)OP(=O)(O)O)O1)CCCN2 [Compound 1.6, 1-(2′-deoxy-5′-triphospho-β-D-ribofuranosyl)piperidino[2,3-d]pyrimidine-2(1H)-one] | equivalent to those produced by dCTP at the same concentration |  | substrate for EFK, incorporation in place of dCTP [2]: a substrate for EFK and that it was efficiently incorporated in place of dCTP |
| NCc1cc2cn([C@H]3C[C@H](O)[C@@H](COP(=O)(O)OP(=O)(O)OP(=O)(O)O)O3)c(=O)nc2o1 [Compound 3.3a] |  | not a substrate for the polymerase |  |
| O=C(NCc1cc2cn([C@H]3C[C@H](O)[C@@H](COP(=O)(O)OP(=O)(O)OP(=O)(O)O)O3)c(=O)nc2o1)c1ccc2c(c1)C(=O)OC21c2ccc(O)cc2Oc2cc(O)ccc21 [Compound 3.3b, 5-Carboxyfluoresceinyl-(6-methylamine-3-(5-triphospho-2-deoxy-β-D-erythro-pentofuranosyl)furano[2,3-d]pyrimidin-2-one)] |  | not a substrate for the polymerase using either of the Templates |  |
| NCCCCCC(=O)NCc1cc2cn([C@H]3C[C@H](O)[C@@H](COP(=O)(O)OP(=O)(O)OP(=O)(O)O)O3)c(=O)nc2o1 [Compound 4.3a, 6-Methyl-N-(6-amino)-caproamide-3-(5-triphospho-2-deoxy-β-D-erythro-pentofuranosyl)furano[2,3-d]pyrimidin-2-one] | 7-9 bases | a substrate for the polymerase again being able to replace dCTP | substrate quality compared with the analogue with the shorter linker arm [1]: better substrate than (3.3a) |
| O=C(CCCCCNC(=O)c1ccc2c(c1)C(=O)OC21c2ccc(O)cc2Oc2cc(O)ccc21)NCc1cc2cn([C@H]3C[C@H](O)[C@@H](COP(=O)(O)OP(=O)(O)OP(=O)(O)O)O3)c(=O)nc2o1 [Compound 4.3b, 5-FAM-(6-methyl-N-(6-amino)-caproamide-3-(5-triphospho-2-deoxy-β-D-erythro-pentofuranosyl)furano[2,3-d]pyrimidin-2-one)] | 9-14 bases | only incorporated in reactions using Template 2 |  |
| NCc1cc2cn([C@H]3C[C@H](O)[C@@H](COP(=O)(O)OP(=O)(O)OP(=O)(O)O)O3)c(=O)nc2[nH]1 [Compound 8.1] |  | a substrate for the polymerase being able to substitute for dCTP |  |
| NCCCCCC(=O)NCc1cc2cn([C@H]3C[C@H](O)[C@@H](COP(=O)(O)OP(=O)(O)OP(=O)(O)O)O3)c(=O)nc2[nH]1 [Compound 10.1a, 6-methyl-N-(6-amino)-caproamide-3-(5-triphospho-2-deoxy-β-D-erythro-pentofuranosyl)pyrrolo[2,3-d]pyrimidin-2-one] | 7-8 bases |  | substrate quality compared with the analogue with the shorter linker arm [1]: better substrate than (8.1); substrate for the polymerase (EFK), incorporation in place of dCTP [4]: surprisingly good substrate; 33P-dATP Incorporation (TLC) ([5]; 50% (10.1a), balance dCTP): 23.2%; 33P-dATP Incorporation (TLC) ([5]; 75% (10.1a), balance dCTP): 16.5%; 33P-dATP Incorporation (TLC) ([5]; 100% (10.1a), no dCTP): 11.5%; formation of PCR product, agarose gel analysis [6]: resulted in the formation of PCR product |
| O=C(CCCCCNC(=O)c1ccc2c(c1)C(=O)OC21c2ccc(O)cc2Oc2cc(O)ccc21)NCc1cc2cn([C@H]3C[C@H](O)[C@@H](COP(=O)(O)OP(=O)(O)OP(=O)(O)O)O3)c(=O)nc2[nH]1 [Compound 10.1b, 5-FAM-(6-methyl-N-(6-amino)-caproamide-3-(5-triphospho-2-deoxy-β-D-erythro-pentofuranosyl)pyrrolo[2,3-d]pyrimidin-2-one)] | 18-24 bases |  |  |
| Cy5-(6-methyl-N-(6-amino)-caproamide-3-(triphospho-2-2deoxy-β-D-erythro-pentofuranosyl)pyrrolo[2,3-d]pyrimidin-2-one [Compound 10.1c] | greater than 30 bases |  |  |
